Experimental findings from ChEMBL document CHEMBL3039007, “Structure-based identification of OATP1B1/3 inhibitors” (Mol Pharmacol, 2013) are described below.

The target in series [1] is T1, Solute carrier organic anion transporter family member 1B1 (Homo sapiens, UniProt Q9Y6L6).
T1 sequence (Q9Y6L6 whole entry): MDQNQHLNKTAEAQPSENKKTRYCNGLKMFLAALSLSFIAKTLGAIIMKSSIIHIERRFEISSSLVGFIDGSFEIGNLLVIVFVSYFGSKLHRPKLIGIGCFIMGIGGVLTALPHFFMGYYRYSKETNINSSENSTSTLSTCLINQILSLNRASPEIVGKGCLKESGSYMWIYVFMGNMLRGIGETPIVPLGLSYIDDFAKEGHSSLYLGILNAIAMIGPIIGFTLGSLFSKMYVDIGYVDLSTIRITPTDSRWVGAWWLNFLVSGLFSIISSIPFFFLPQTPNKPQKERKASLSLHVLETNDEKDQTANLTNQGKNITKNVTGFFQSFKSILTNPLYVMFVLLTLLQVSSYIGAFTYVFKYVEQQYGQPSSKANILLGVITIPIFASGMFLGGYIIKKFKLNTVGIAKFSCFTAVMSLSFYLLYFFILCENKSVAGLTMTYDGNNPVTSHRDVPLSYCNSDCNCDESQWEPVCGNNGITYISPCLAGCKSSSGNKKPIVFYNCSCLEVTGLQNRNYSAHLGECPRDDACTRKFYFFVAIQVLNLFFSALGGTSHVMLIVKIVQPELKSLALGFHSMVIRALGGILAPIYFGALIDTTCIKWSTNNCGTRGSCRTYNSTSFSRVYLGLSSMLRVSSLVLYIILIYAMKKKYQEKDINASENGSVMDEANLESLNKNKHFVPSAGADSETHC
As to conditions: chinese hamster, cho, 10 µM.

For series [2], the target named is T2, Solute carrier organic anion transporter family member 1B3 (Homo sapiens, UniProt Q9NPD5).
T2 sequence (Q9NPD5 whole entry): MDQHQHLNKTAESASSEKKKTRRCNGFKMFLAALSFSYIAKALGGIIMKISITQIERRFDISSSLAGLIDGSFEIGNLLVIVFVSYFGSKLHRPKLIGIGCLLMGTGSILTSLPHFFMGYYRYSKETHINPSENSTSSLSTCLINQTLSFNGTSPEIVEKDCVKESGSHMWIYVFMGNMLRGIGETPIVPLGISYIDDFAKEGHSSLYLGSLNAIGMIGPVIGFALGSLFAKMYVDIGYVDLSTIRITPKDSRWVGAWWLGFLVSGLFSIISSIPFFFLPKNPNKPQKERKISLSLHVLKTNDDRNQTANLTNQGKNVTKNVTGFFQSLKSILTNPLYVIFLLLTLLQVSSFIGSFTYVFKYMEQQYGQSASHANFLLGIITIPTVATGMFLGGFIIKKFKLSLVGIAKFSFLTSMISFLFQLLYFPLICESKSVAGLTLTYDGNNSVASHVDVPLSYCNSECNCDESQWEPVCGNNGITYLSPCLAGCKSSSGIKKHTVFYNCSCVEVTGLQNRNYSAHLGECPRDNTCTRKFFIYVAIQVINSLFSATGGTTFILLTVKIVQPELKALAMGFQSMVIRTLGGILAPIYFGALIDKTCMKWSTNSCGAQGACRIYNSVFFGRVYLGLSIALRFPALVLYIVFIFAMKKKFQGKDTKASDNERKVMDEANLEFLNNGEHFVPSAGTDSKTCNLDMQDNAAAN
The note with it: chinese hamster, cho, 10 µM.

SMILES strings stand for the structures. Residues, ends and D or L forms follow the SMILES beside them. *: point of attachment. For = O=C*

Regarding `CC(C)(C)NCC(O)c1cc(O)cc(O)c1.O=S(=O)(O)O` (stereo not given), the residual activity is listed as 89.3% in series [1] and 94.09% in series [2].

On to `COc1cccc(OC)c1C(=O)N[C@@H]1C(=O)N2[C@@H]1SC(C)(C)[C@@H]2C(=O)[O-].[Na+]`, for which the residual activity in series [1] is on record as 68.38%; in series [2], 108.8%.

For `COc1cnc(NS(=O)(=O)c2ccc(N)cc2)nc1`, the residual activity turned out to be 233.5% in series [1] and 112.9% in series [2].

As for `CC(C)CC(N(C)C)C1(c2ccc(Cl)cc2)CCC1.Cl` (stereo not given), the results for the residual activity in series [1] and in series [2] were 96.94% and 113.9%, respectively.

For `CC(=O)N[C@@H](CCC(=O)O)C(=O)O`, the residual activity was determined as 59.95% in series [1] and 77.8% in series [2].

Take `CC(C)NCC(O)c1ccc2ccccc2c1.Cl` (stereo not given): the residual activity in series [1] was 83.88%; in series [2], 87.91%.

Regarding `CC(=O)NC(C(=O)O)C(C)(C)SN=O` (stereo not given), the residual activity in series [1] was found to be 73.57%; in series [2], 84.98%.

Consider `C=C(C)CCC[C@@H](C)CCOC(C)=O`, for which the residual activity in series [1] is 104.4%; in series [2], 112.9%.

On to `CC1(C)C=CC(=O)[C@]2(C)[C@H]3CC[C@@]4(C)[C@H](c5ccoc5)OC(=O)[C@H]5O[C@]54[C@]3(C)C(=O)C[C@@H]12`, for which the residual activity stood at 56.15% in series [1] and 89.62% in series [2].

As to `CC1(C)[C@H](O)C[C@H](O)[C@@]2(C)[C@H]3CC[C@]4(C)[C@@H](c5ccoc5)OC(=O)[C@H]5O[C@]54[C@]3(C)[C@H](O)C[C@@H]12`, the residual activity in series [1] is 48%; in series [2], 84.19%.

Consider `C=C1C2CC[C@H]3[C@]4(C)C[C@H](O[C@H]5O[C@H](CO)[C@@H](OS(=O)(=O)[O-])[C@H](OS(=O)(=O)[O-])[C@H]5OC(=O)CC(C)C)C[C@@H](C(=O)O)[C@H]4CC[C@]3(C2)[C@H]1O.[K+].[K+]`, for which the residual activity in series [1] is listed as 100%; in series [2], 92.24%.

With `C[C@H](CCC(=O)O)[C@H]1CC[C@H]2[C@@H]3CC[C@@H]4C[C@H](O)CC[C@]4(C)[C@H]3C=C[C@]12C`, the residual activity in series [1] is given as 23.69%; in series [2] it was 112%.

For the compound `CC(=O)OCC(=O)[C@@]1(O)CC[C@H]2[C@@H]3CC[C@@H]4C[C@H](O)CC[C@]4(C)[C@H]3C(=O)C[C@@]21C`, the residual activity in series [1] was 81.64%; in series [2], 80%.

With `COC[C@]12CN(C=O)C3[C@@H]4[C@H](OC)[C@H]1[C@@]3([C@@H](OC)C[C@H]2O)[C@@H]1C[C@@]2(O)[C@H](OC(=O)c3ccccc3)[C@@H]1[C@]4(OC(C)=O)[C@@H](O)[C@@H]2OC`, the residual activity in series [1] is given as 90.86%; in series [2] it was 73.94%.

`C[C@]12CC[C@@H](OS(=O)(=O)[O-])C[C@@H]1CC[C@@H]1[C@@H]2CC[C@]2(C)C(=O)CC[C@@H]12.[Na+]`: the residual activity is 27.84% in series [1] and 40.78% in series [2].

As to `CC(=O)O[C@H]1CC[C@@]2(C)[C@H](CC[C@@H]3[C@@H]2CC[C@]2(C)[C@@H]4[C@H](C[C@@H]32)O[C@]2(CC[C@@H](C)CO2)[C@H]4C)C1`, the residual activity in series [1] is given as 103.6%; in series [2] it was 92.75%.

As for `CC(=O)O[C@H]1CC[C@@]2(C)C(=CC[C@H]3[C@@H]4CC[C@H]([C@H](C)CCCC(C)C)[C@@]4(C)CC[C@@H]32)C1`, the residual activity in series [1] is 89.8%; in series [2], 102.8%.

On to `O=C([O-])c1cc2cc(Cc3cccnc3)ccc2o1.[Na+]`, for which the residual activity in series [1] was determined as 121%; in series [2] it was 108.4%.

Turning to `O=C1OC(=O)C2C3CCC(O3)C12` (stereo not given), the residual activity amounted to 106.4% in series [1] and 93.17% in series [2].

Take `CSCC[C@H](NC=O)C(=O)N[C@@H](Cc1ccccc1)C(=O)O` (For-Met-Phe-OH): the residual activity turned out to be 38.77% in series [1] and 104.4% in series [2].

`CC(C)C[C@H](NC(=O)CN)C(=O)N[C@@H](Cc1ccccc1)C(=O)O` (H-Gly-Leu-Phe-OH): the residual activity worked out at 118.4% in series [1] and 114.9% in series [2].

As to `CC1=CC(=O)CC(C)(C)C1(O)/C=C/C(C)=C\C(=O)O` (racemic) [ABSCISIC ACID], the figures for the residual activity in series [1] and in series [2] were 70.85% and 92.91%, respectively.

On to `CC(C)CC(NC(=O)C(C)N)C(=O)O` (racemic) [ALANYL-dl-LEUCINE], for which the values for the residual activity in series [1] and in series [2] were 111.6% and 98.55%, respectively.

In the case of `CC(N)C(=O)NC(Cc1ccccc1)C(=O)O` (racemic) [ALANYL-dl-PHENYLALANINE], the residual activity in series [1] came to 90.94%; in series [2], 75.84%.

`COc1ccc(C2COc3cc(O)ccc3C2)c(OC)c1O` (racemic) [MUCRONULATOL(+/-)]: the residual activity in series [1] amounted to 87.17%; in series [2], 87.73%.

As for `NC(C(=O)O)C(O)C(=O)O` (racemic) [d,l-threo-3-HYDROXYASPARTIC ACID], the values for the residual activity in series [1] and in series [2] were 70.17% and 82.91%, respectively.

On to `CC(C)CC(NC(=O)OCC1c2ccccc2-c2ccccc21)C(=O)O` (single isomer, unassigned) [N- (9-FLUORENYLMETHOXYCARBONYL)-L-LEUCINE], for which the residual activity in series [1] came to 32.48%; in series [2] it was 48.34%.

With `C=CCCCCCCCCCCCC(O)CC(O)CO` (stereo in doubt; form 1) [AVOCADENE], the residual activity is given as 107.8% in series [1] and 100.3% in series [2].

Turning to `C=CCCCCCCCCCCCC(O)CC(O)CO` (stereo in doubt; form 2) [AVOCADENE], the residual activity in series [1] turned out to be 99.03%; in series [2] it was 104.3%.

For `CNNC.Cl` [1,2-DIMETHYLHYDRAZINE HYDROCHLORIDE], the residual activity in series [1] came to 108.5%; in series [2], 99.77%.

For the compound `COc1cc(OC)cc(OC)c1` [1,3,5-TRIMETHOXYBENZENE], the residual activity in series [1] is reported as 90.48%; in series [2], 68.6%.

In the case of `CCCn1c(=O)c2[nH]c(C3CCCC3)nc2n(CCC)c1=O` [1,3-DIPROPYL-8-CYCLOPENTYLXANTHINE [DPCPX]], the values for the residual activity in series [1] and in series [2] were 264.1% and 117.3%, respectively.

For the compound `Cc1cc(O)c2c(c1O)C(=O)c1c(O)cc(C)c(O)c1C2=O` [1,4,5,8-TETRAHYDROXY-2,6-DIMETHYLANTHROQUINONE], the residual activity is given as 102.7% in series [1] and 105.2% in series [2].

For `Clc1ccc(Cl)cc1` [1,4-DICHLOROBENZENE], the residual activity in series [1] amounted to 99.98%; in series [2], 96.49%.

As for `NC1(C(=O)O)CCC1` [1-AMINOCYCLOBUTANE CARBOXYLIC ACID], the residual activity turned out to be 131.1% in series [1] and 95.93% in series [2].

For the compound `NC1(C(=O)O)CC1` [1-Aminocyclopropane carboxylic acid], the results for the residual activity in series [1] and in series [2] were 125.9% and 99.32%, respectively.

As to `Cn1c(=O)[nH]c2nc[nH]c2c1=O` [1-METHYLXANTHINE], the residual activity in series [1] is recorded as 102.1%; in series [2] it was 96.5%.

As for `Cl.N=C(N)NC(=N)Nc1ccccc1` [1-PHENYLBIGUANIDE HYDROCHLORIDE], the residual activity in series [1] came out at 80.12%; in series [2], 94.41%.

As to `COc1ccc2c(c1OC)C(=O)O[C@H]2[C@H]1c2cc3c(cc2CCN1C)OCO3` [1R,9S-HYDRASTINE], the residual activity in series [1] was determined as 94.94%; in series [2], 84.49%.

With `O=C(/C=C/c1ccccc1)c1ccc(O[C@@H]2O[C@H](CO)[C@@H](O)[C@H](O)[C@H]2O)cc1O` [2',4'-DIHYDROXYCHALCONE 4'-GLUCOSIDE], the figures for the residual activity in series [1] and in series [2] were 99.51% and 107.4%, respectively.
